In the supplement of paper PMC12592484:

Experiments:
Test in all cases: drug sensitivity score (DSS2, normalised partial AUC of dose-response, 72 h CellTiter-Glo viability) (DSS (dimensionless)); higher = more sensitive (stronger growth inhibition / cytotoxicity); extreme values may be limits of the assay
CAF#3 = system: CAF#3 (primary prostate cancer-associated fibroblasts of myCAF-like type)
In short: (§1)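 Viability of low-passage primary prostate cancer-associated fibroblasts, PF179T, WPMY-1, LNCaP and 22Rv1 cells was read by CellTiter-Glo 2.0 luminescence 72 h after seeding onto compounds pre-dispensed in 384-well plates at five doses over a 10,000-fold range. Readings were scaled between vehicle and positive-control wells. Sensitivity is reported as a drug sensitivity score from BREEZE, namely a partial area under the fitted logistic curve divided by the log of its upper asymptote, where higher means more sensitive.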

CAF#1 = system: CAF#1 (primary prostate cancer-associated fibroblasts of myCAF-like type)
In short: as §1

CAF#6 = system: CAF#6 (primary prostate cancer-associated fibroblasts of iCAF-like type)
In short: as §1

CAF#7 = system: CAF#7 (primary prostate cancer-associated fibroblasts of myCAF-like type)
In short: as §1

22Rv1 = system: 22Rv1
In short: as §1

WPMY-1 = system: WPMY-1
In short: as §1

CAF#5 = system: CAF#5 (primary prostate cancer-associated fibroblasts of myCAF-like type)
In short: as §1

CAF#2 = system: CAF#2 (primary prostate cancer-associated fibroblasts of iCAF-like type)
In short: as §1

CAF#4 = system: CAF#4 (primary prostate cancer-associated fibroblasts of iCAF-like type)
In short: as §1

PF179T = system: PF179T
In short: as §1

LNCAP = system: LNCAP
In short: as §1

Row | SMILES | drug sensitivity score (CAF#3) | drug sensitivity score (CAF#1) | drug sensitivity score (CAF#6) | drug sensitivity score (CAF#7) | drug sensitivity score (22Rv1) | drug sensitivity score (WPMY-1) | drug sensitivity score (CAF#5) | drug sensitivity score (CAF#2) | drug sensitivity score (CAF#4) | drug sensitivity score (PF179T) | drug sensitivity score (LNCAP)
1 | COc1cc2ncnc(Nc3ccc(F)c(Cl)c3)c2cc1OCCCN1CCOCC1 [Gefitinib] (tested concentration range 1-10000 nM) | 0.2 | 0 | 0.2 | 0.2 | 3.9 | 2.1 | 0.5 | 2 | 2.8 | 1.7 | 2.6
2 | Nc1ccn([C@@H]2O[C@H](CO)[C@@H](O)C2(F)F)c(=O)n1 [Gemcitabine] (tested concentration range 0.1-1000 nM) | 3.9 | 3.1 | 4.4 | 7.2 | 20.9 | 22.5 | 5.6 | 10 | 8 | 18 | 16.4
3 | CCc1nc(C(N)=O)c(Nc2ccc(N3CCC(N4CCN(C)CC4)CC3)c(OC)c2)nc1NC1CCOCC1 [Gilteritinib] (tested concentration range 0.1-1000 nM) | 0 | 0.3 | 0 | 0 | 1.7 | 5.2 | 0.1 | 0 | 0 | 1.3 | 0
4 | CCN(CC)Cc1ccc2cc(COC(=O)Nc3ccc(C(=O)NO)cc3)ccc2c1 [Givinostat] (tested concentration range 0.1-1000 nM) | 1.8 | 2.4 | 3.6 | 3.1 | 9.8 | 11.4 | 4.9 | 4.2 | 2.3 | 3.9 | 9.3
5 | CN1CC[C@@H](NC(=O)Nc2ccc(C#N)cc2)C[C@@H]1c1nc2ccccc2[nH]1 [Glasdegib] (tested concentration range 0.1-1000 nM) | 0.1 | 0 | 0.3 | 0 | 0 | 0 | 0 | 0 | 0 | 0 | 0
6 | COCCNCc1ccc(-c2cc3nccc(Oc4ccc(NC(=S)NC(=O)Cc5ccc(F)cc5)cc4F)c3s2)nc1 [Glesatinib] (tested concentration range 0.2-2500 nM) | 4.4 | 5.6 | 3.4 | 4.2 | 1.4 | 2.5 | 4.3 | 5.1 | 5.7 | 3.4 | 1.3
7 | CC(C)C[C@H](NC(=O)[C@@H](COC(C)(C)C)NC(=O)[C@H](Cc1ccc(O)cc1)NC(=O)[C@H](CO)NC(=O)[C@H](Cc1c[nH]c2ccccc12)NC(=O)[C@H](Cc1cnc[nH]1)NC(=O)[C@@H]1CCC(=O)N1)C(=O)N[C@@H](CCCNC(=N)N)C(=O)N1CCC[C@H]1C(=O)NNC(N)=O [Goserelin] (tested concentration range 1-10000 nM) | 0 | 0 | 0.6 | 0 | 0 | 0 | 0.2 | 0 | 0 | 0 | 0
8 | O=S(=O)(c1cccc2c(O)nccc12)N1CCCNCC1 [Hydroxyfasudil] (tested concentration range 1.9-19000 nM) | 0 | 0 | 0 | 0 | 0 | 0.3 | 0 | 0 | 0 | 0 | 0
9 | NC(=O)NO [Hydroxyurea] (tested concentration range 100-1000000 nM) | 0.5 | 1.9 | 0 | 0 | 3.8 | 5 | 2.5 | 5.5 | 0.2 | 2.4 | 4.6
10 | O=C(O)c1ccc(O)c2ncccc12 [IOX-1] (tested concentration range 10-100000 nM) | 0.3 | 0.1 | 0.8 | 0.4 | 0.9 | 0.8 | 0.8 | 1.7 | 2.6 | 3.9 | 6.9
11 | O=C(O)CNC(=O)c1c(O)c2ccccc2n(Cc2ccccc2)c1=O [IOX-2] (tested concentration range 2.5-25000 nM) | 0 | 0 | 0 | 0 | 0 | 0 | 0 | 0 | 0 | 0 | 0
12 | C=CC(=O)N1CCC[C@@H](n2nc(-c3ccc(Oc4ccccc4)cc3)c3c(N)ncnc32)C1 [Ibrutinib] (tested concentration range 0.1-1000 nM) | 0.2 | 0.1 | 0 | 0 | 0 | 0 | 0.7 | 0 | 0 | 0 | 0
13 | C#Cc1cccc(Nc2ncnc3cc4c(cc23)OCCOCCOCCO4)c1 [Icotinib] (tested concentration range 1-10000 nM) | 2.3 | 0.3 | 0 | 0 | 0.7 | 0 | 0 | 0 | 0 | 0 | 0
14 | CC(=O)[C@]1(O)Cc2c(O)c3c(c(O)c2[C@@H](O[C@H]2C[C@H](N)[C@H](O)[C@H](C)O2)C1)C(=O)c1ccccc1C3=O [Idarubicin] (tested concentration range 0.1-1000 nM) | 4.4 | 7.6 | 8.5 | 9.3 | 12.9 | 16.4 | 7.9 | 12.1 | 7.5 | 12.5 | 19.9
15 | COc1cc(C(=O)O)ccc1NC(=O)[C@@H]1N[C@@H](CC(C)(C)C)[C@](C#N)(c2ccc(Cl)cc2F)[C@H]1c1cccc(Cl)c1F [Idasanutlin] (tested concentration range 1-10000 nM) | 5.1 | 12.5 | 10.6 | 10.2 | 12.7 | 1.9 | 12.5 | 13.5 | 11.5 | 16.7 | 0
16 | CC[C@H](Nc1ncnc2[nH]cnc12)c1nc2cccc(F)c2c(=O)n1-c1ccccc1 [Idelalisib] (tested concentration range 1-10000 nM) | 4.6 | 3.4 | 3.2 | 3.9 | 2 | 1.3 | 3.6 | 4.5 | 5.6 | 5.4 | 10.2
17 | Cc1ccc(NC(=O)c2ccc(CN3CCN(C)CC3)cc2)cc1Nc1nccc(-c2cccnc2)n1 [Imatinib] (tested concentration range 1-10000 nM) | 1.7 | 0.3 | 1.7 | 0.7 | 1.6 | 0.6 | 0.6 | 2.6 | 2 | 0 | 2.2
18 | CC(C)Cn1cnc2c(N)nc3ccccc3c21 [Imiquimod] (tested concentration range 0.2-2500 nM) | 0.1 | 1.4 | 0 | 0 | 0 | 0 | 0 | 0 | 0 | 0 | 0
19 | Cn1cc(C[C@@H](N)C(=O)O)c2ccccc21 [Indoximod] (tested concentration range 0.5-5000 nM) | 0 | 0 | 0 | 0 | 0 | 0 | 0.6 | 0 | 0 | 0 | 0
20 | CCN1CCN(c2ccc(Nc3cc(N(C)C(=O)Nc4c(Cl)c(OC)cc(OC)c4Cl)ncn3)cc2)CC1 [Infigratinib] (tested concentration range 0.1-1000 nM) | 0 | 0 | 0 | 0 | 0 | 0 | 0 | 0 | 0 | 0 | 0
21 | CC(C)NC[C@@H](C(=O)N1CCN(c2ncnc3c2[C@H](C)C[C@H]3O)CC1)c1ccc(Cl)cc1 [Ipatasertib] (tested concentration range 1-10000 nM) | 1.8 | 0.6 | 1.7 | 0 | 5.7 | 2 | 1.1 | 1.2 | 0.1 | 0 | 22.6
22 | CCC(C)n1ncn(-c2ccc(N3CCN(c4ccc(OCC5COC(Cn6cncn6)(c6ccc(Cl)cc6Cl)O5)cc4)CC3)cc2)c1=O (stereo not given) [Itraconazole] (tested concentration range 0.5-5000 nM) | 2.7 | 0 | 1.6 | 1.2 | 2.7 | 4.2 | 0 | 1.2 | 0.2 | 1 | 5.3
23 | N#Cc1ccnc(N2C(=O)CC[C@H]2C(=O)N(c2cncc(F)c2)[C@H](C(=O)NC2CC(F)(F)C2)c2ccccc2Cl)c1 [Ivosidenib] (tested concentration range 1-10000 nM) | 0 | 0.7 | 0 | 0 | 0 | 0.2 | 0.3 | 1.4 | 2 | 0 | 0
24 | C/C(=C\c1csc(C)n1)[C@@H]1C[C@@H]2O[C@]2(C)CCC[C@H](C)[C@H](O)[C@@H](C)C(=O)C(C)(C)[C@@H](O)CC(=O)N1 [Ixabepilone] (tested concentration range 0.1-1000 nM) | 0.1 | 2.9 | 0 | 0.4 | 4.3 | 4.5 | 2.5 | 4.3 | 2.9 | 3.2 | 4.4
25 | CC(C)C[C@H](NC(=O)CNC(=O)c1cc(Cl)ccc1Cl)B(O)O [Ixazomib] (tested concentration range 0.1-1000 nM) | 7.2 | 4.6 | 6 | 7.4 | 10.7 | 16.5 | 7.3 | 6.3 | 5.8 | 4.9 | 12.9
